Measured values reported in the NIST ThermoML archive (doi:10.1021/je2010837).

Settings: 101.33 kPa, Liquid; for viscosity: Concentric cylinders viscometry; for electrical conductivity: Direct current cell with electrodes

CCCC[n+]1ccn(C)c1.O=S(=O)([N-]S(=O)(=O)C(F)(F)F)C(F)(F)F
Settings	electrical conductivity [S/m]	mass density [kg/m3]	viscosity [mPa·s]
293.15 K	–	1439.27	–
298.15 K	0.402	1434.3	50.05
299.15 K	0.417	–	–
300.15 K	0.435	–	–
301.15 K	0.453	–	–
302.15 K	0.47	–	–
303.15 K	0.488	1429.4	41.24
304.15 K	0.506	–	–
305.15 K	0.524	–	–
306.15 K	0.543	–	–
307.15 K	0.562	–	–
308.15 K	0.581	1424.57	33.65
309.15 K	0.602	–	–
310.15 K	0.622	–	–
311.15 K	0.643	–	–
312.15 K	0.664	–	–
313.15 K	0.684	1419.61	28.28
314.15 K	0.706	–	–
315.15 K	0.729	–	–
316.15 K	0.751	–	–
317.15 K	0.773	–	–
318.15 K	0.795	1414.67	23.91
319.15 K	0.82	–	–
320.15 K	0.842	–	–
321.15 K	0.866	–	–
322.15 K	0.891	–	–
323.15 K	0.921	1409.65	20.64
324.15 K	0.949	–	–
325.15 K	0.983	–	–
326.15 K	1.01	–	–
327.15 K	1.04	–	–
328.15 K	1.07	1404.64	17.9
329.15 K	1.1	–	–
330.15 K	1.14	–	–
331.15 K	1.17	–	–
332.15 K	1.21	–	–
333.15 K	1.24	1399.6	15.51
334.15 K	1.27	–	–
335.15 K	1.31	–	–
336.15 K	1.34	–	–
337.15 K	1.38	–	–
338.15 K	1.41	1394.43	13.71
339.15 K	1.45	–	–
340.15 K	1.48	–	–
341.15 K	1.52	–	–
342.15 K	1.55	–	–
343.15 K	1.59	1389.16	12.09
344.15 K	1.63	–	–
345.15 K	1.67	–	–
346.15 K	1.71	–	–
347.15 K	1.74	–	–
348.15 K	1.78	1383.85	10.78
349.15 K	1.82	–	–
350.15 K	1.86	–	–
351.15 K	1.9	–	–
352.15 K	1.94	–	–
353.15 K	1.98	1378.53	9.69

CCCC[N+]1(C)CCCC1.O=S(=O)([N-]S(=O)(=O)C(F)(F)F)C(F)(F)F
Settings	electrical conductivity [S/m]	mass density [kg/m3]	viscosity [mPa·s]
293.15 K	–	1399	–
298.15 K	0.277	1394.57	76.73
299.15 K	0.288	–	–
300.15 K	0.3	–	–
301.15 K	0.313	–	–
302.15 K	0.327	–	–
303.15 K	0.34	1390.02	61.67
304.15 K	0.354	–	–
305.15 K	0.368	–	–
306.15 K	0.383	–	–
307.15 K	0.398	–	–
308.15 K	0.412	1385.48	50.49
309.15 K	0.427	–	–
310.15 K	0.443	–	–
311.15 K	0.459	–	–
312.15 K	0.475	–	–
313.15 K	0.492	1380.93	41.73
314.15 K	0.509	–	–
315.15 K	0.527	–	–
316.15 K	0.544	–	–
317.15 K	0.562	–	–
318.15 K	0.58	1376.28	34.67
319.15 K	0.598	–	–
320.15 K	0.616	–	–
321.15 K	0.635	–	–
322.15 K	0.655	–	–
323.15 K	0.673	1371.64	29.48
324.15 K	0.694	–	–
325.15 K	0.713	–	–
326.15 K	0.733	–	–
327.15 K	0.754	–	–
328.15 K	0.775	1366.9	25.43
329.15 K	0.795	–	–
330.15 K	0.816	–	–
331.15 K	0.839	–	–
332.15 K	0.86	–	–
333.15 K	0.884	1362.2	21.9
334.15 K	0.911	–	–
335.15 K	0.938	–	–
336.15 K	0.965	–	–
337.15 K	0.993	–	–
338.15 K	1.02	1357.35	19.16
339.15 K	1.05	–	–
340.15 K	1.08	–	–
341.15 K	1.11	–	–
342.15 K	1.13	–	–
343.15 K	1.17	1352.44	16.82
344.15 K	1.2	–	–
345.15 K	1.23	–	–
346.15 K	1.26	–	–
347.15 K	1.29	–	–
348.15 K	1.32	1347.48	14.8
349.15 K	1.36	–	–
350.15 K	1.4	–	–
351.15 K	1.43	–	–
352.15 K	1.46	–	–
353.15 K	1.49	1342.48	13.24
